Bridge positions count the residues as written; N and C are the ends. Peptide text beside a SMILES is read from it.
Test system: Escherichia coli W3110
Assay type: cell-based
Conditions: W3110

Question: Which results are given for Protegrin-1 [reference compound]?
Answer: MIC: 0.5 to 4 µg/mL; W3110 MIC MH: 0.5 µg/mL; W3110 MIC RPMI: 0.5 µg/mL

Test system: Acinetobacter baumannii AB5075
Conditions: 100% fetal bovine serum; median of triplicate
Experimental: MICs were performed by a modifiedClinical and Laboratory Standards Institute) procedure. […] Separately, E. coli W3110 or A. baumannii AB5075 was grown overnight in 5 ml of standard MH at 37°C. Cells from these cultures were diluted to a concentration of 5 × 10^5 to 6 × 10^5 cells/ml in either standard MH, MHII, RPMI, or fetal bovine serum, and 90 μl was added to each well of the 96-well plate containing diluted peptide. Plates were wrapped twice in parafilm and incubated at 37°C for 18 to 24 hours. Wells were examined by eye against wells with no bacteria for signs of growth. MICs were reported as the minimum concentration with no observable growth. In cases where triplicate samples differed, the concentration supported by the median of the three replicates was reported. […]
For consistency, all SynCH peptides were resuspended at 10 mg/ml in water. Peptides were then visually inspected for any lack of solubility (Data File S1). […]
We had this library commercially synthesized and tested its ability to inhibit the growth of Acinetobacter baumannii AB5075, a clinically isolated Carbapenem Resistant Acinetobacter (CRA) pathogen. MICs were performed in MH as well as 100% FBS, which is likely more representative of the in vivo environment. […]

Question: For Protegrin-1 [reference compound], which “AB5075 MIC FBS” value is on record?
Answer: 32 µg/mL

Same assay, conditions: AB5075

Question: Which results are given for `CC(C)C[C@@H]1NC(=O)[C@H](CCCNC(=N)N)NC(=O)[C@H](C(C)C)NC(=O)[C@H](CCCCN)NC(=O)[C@H](C(C)C)NC(=O)[C@H](CCCNC(=N)N)NC(=O)[C@H](CCCNC(=N)N)NC(=O)[C@H](CCCNC(=N)N)NC(=O)[C@H](CCCNC(=N)N)NC(=O)[C@H](CC(N)=O)NC(=O)[C@H](CCCNC(=N)N)NC(=O)[C@H](CC(C)C)NC(=O)[C@H](CCCNC(=N)N)NC(=O)[C@H](C(C)C)NC(=O)[C@H](CCCNC(=N)N)NC(=O)[C@@H](N)CSSC[C@@H](C(=O)O)NC(=O)[C@H](CCCNC(=N)N)NC1=O` [SySA-5.7] (H-CRVRLRNRRRRVKVRLRC-OH; disulfide 1-18)?
Answer: AB5075 MIC FBS: > 128 µg/mL; AB5075 MIC MH: 8 µg/mL

Question: How did the “AB5075 MIC FBS” value turn out when `CC(C)C[C@@H]1NC(=O)[C@H](CCCNC(=N)N)NC(=O)[C@H](C(C)C)NC(=O)[C@H](CCCCN)NC(=O)[C@H](CCCNC(=N)N)NC(=O)[C@H](CCCNC(=N)N)NC(=O)[C@H](CCCNC(=N)N)NC(=O)[C@H](CCCNC(=N)N)NC(=O)[C@H](CC(C)C)NC(=O)[C@H](CCCNC(=N)N)NC(=O)[C@H](C(C)C)NC(=O)[C@H](CCCNC(=N)N)NC(=O)[C@H](CC(C)C)NC(=O)[C@@H](N)CSSC[C@@H](C(=O)O)NC(=O)[C@H](C(C)C)NC(=O)[C@H](CCC(N)=O)NC1=O` [SySA-5.19] (H-CLRVRLRRRRKVRLQVC-OH; disulfide 1-17) was run?
Answer: > 128 µg/mL

Question: What about the “AB5075 MIC MH” value of the same compound?
Answer: 4 µg/mL

Question: Which results are given for `CC(C)C[C@@H]1NC(=O)[C@H](CO)NC(=O)[C@H](C(C)C)NC(=O)[C@H](CCCCN)NC(=O)[C@H](CCCNC(=N)N)NC(=O)CNC(=O)[C@H](CCCNC(=N)N)NC(=O)[C@H](CCCNC(=N)N)NC(=O)[C@H](CCCNC(=N)N)NC(=O)[C@H](CC(C)C)NC(=O)[C@H](CCCNC(=N)N)NC(=O)[C@H](C(C)C)NC(=O)[C@H](CCCNC(=N)N)NC(=O)[C@@H](N)CSSC[C@@H](C(=O)O)NC(=O)[C@H](CCCNC(=N)N)NC1=O` [SySA-5.24] (H-CRVRLRRRGRKVSLRC-OH; disulfide 1-16)?
Answer: AB5075 MIC FBS: > 128 µg/mL; AB5075 MIC MH: 16 µg/mL

Question: `CC(C)C[C@@H]1NC(=O)[C@H](CO)NC(=O)[C@H](C(C)C)NC(=O)[C@H](CCCCN)NC(=O)[C@H](CCCNC(=N)N)NC(=O)[C@H](CCCNC(=N)N)NC(=O)[C@H](CCCNC(=N)N)NC(=O)[C@H](CC(N)=O)NC(=O)[C@H](CC(C)C)NC(=O)[C@H](CCCNC(=N)N)NC(=O)[C@H](C(C)C)NC(=O)[C@H](CCCNC(=N)N)NC(=O)[C@H](CC(C)C)NC(=O)[C@@H](N)CSSC[C@@H](C(=O)O)NC(=O)[C@H](C(C)C)NC(=O)[C@H](CCC(N)=O)NC1=O` [SySA-5.18] (H-CLRVRLNRRRKVSLQVC-OH; disulfide 1-17) was tested. Which “AB5075 MIC FBS” value did it give?
Answer: 128 µg/mL

Question: And the “AB5075 MIC MH” value?
Answer: 8 µg/mL

Question: `CC(C)C[C@@H]1NC(=O)[C@H](CCCNC(=N)N)NC(=O)[C@H](C(C)C)NC(=O)[C@H](CCCCN)NC(=O)[C@H](CCCNC(=N)N)NC(=O)[C@H](CCCNC(=N)N)NC(=O)[C@H](CCCNC(=N)N)NC(=O)[C@H](CCCNC(=N)N)NC(=O)[C@H](CC(C)C)NC(=O)[C@H](CCCNC(=N)N)NC(=O)[C@H](C(C)C)NC(=O)[C@H](CCCNC(=N)N)NC(=O)[C@H](CC(C)C)NC(=O)[C@@H](N)CSSC[C@@H](C(=O)O)NC(=O)[C@H](C(C)C)NC(=O)[C@H](CCCNC(=N)N)NC1=O` [SySA-5.20] (H-CLRVRLRRRRKVRLRVC-OH; disulfide 1-17) was tested. Which “AB5075 MIC FBS” value did it give?
Answer: 128 µg/mL

Question: And the “AB5075 MIC MH” value?
Answer: 4 µg/mL

Question: What does the source list for `CC(C)C[C@@H]1NC(=O)[C@H](CO)NC(=O)[C@H](C(C)C)NC(=O)[C@H](CCCCN)NC(=O)[C@H](CCCNC(=N)N)NC(=O)CNC(=O)[C@H](CCCNC(=N)N)NC(=O)[C@H](CCCNC(=N)N)NC(=O)[C@H](CC(N)=O)NC(=O)[C@H](CC(C)C)NC(=O)[C@H](CCCNC(=N)N)NC(=O)[C@H](C(C)C)NC(=O)[C@H](CCCNC(=N)N)NC(=O)[C@@H](N)CSSC[C@@H](C(=O)O)NC(=O)[C@H](CCC(N)=O)NC1=O` [SySA-5.23] (H-CRVRLNRRGRKVSLQC-OH; disulfide 1-16)?
Answer: AB5075 MIC FBS: > 128 µg/mL; AB5075 MIC MH: 8 µg/mL

Question: Which “AB5075 MIC FBS” value does the source give for `CC(C)C[C@@H]1NC(=O)[C@H](CCCNC(=N)N)NC(=O)[C@H](C(C)C)NC(=O)[C@H](CCCNC(=N)N)NC(=O)[C@H](CC(C)C)NC(=O)[C@@H](N)CSSC[C@@H](C(=O)O)NC(=O)[C@H](C(C)C)NC(=O)[C@H](CCCNC(=N)N)NC(=O)[C@H](CC(C)C)NC(=O)[C@H](CCCNC(=N)N)NC(=O)[C@H](C(C)C)NC(=O)[C@H](CCCCN)NC(=O)[C@H](C(C)C)NC(=O)[C@H](CCCNC(=N)N)NC(=O)[C@H](CCCNC(=N)N)NC(=O)[C@H](CCCNC(=N)N)NC(=O)[C@H](CCCNC(=N)N)NC(=O)[C@H](CC(N)=O)NC(=O)[C@H](CCCNC(=N)N)NC1=O` [SySA-5.2] (H-CLRVRLRNRRRRVKVRLRVC-OH; disulfide 1-20) here?
Answer: > 128 µg/mL

Question: What about the “AB5075 MIC MH” value of the same compound?
Answer: 4 µg/mL

Question: With `CC(C)C[C@@H]1NC(=O)[C@H](CO)NC(=O)[C@H](C(C)C)NC(=O)[C@H](CCCCN)NC(=O)[C@H](C(C)C)NC(=O)[C@H](CCCNC(=N)N)NC(=O)CNC(=O)[C@H](CCCNC(=N)N)NC(=O)[C@H](CCCNC(=N)N)NC(=O)[C@H](CC(N)=O)NC(=O)[C@H](CC(N)=O)NC(=O)[C@H](CC(C)C)NC(=O)[C@H](CCCNC(=N)N)NC(=O)[C@H](C(C)C)NC(=O)[C@H](CCCNC(=N)N)NC(=O)[C@@H](N)CSSC[C@@H](C(=O)O)NC(=O)[C@H](CCC(N)=O)NC1=O` [SySA-5.5] (H-CRVRLNNRRGRVKVSLQC-OH; disulfide 1-18) as the compound, how does the “AB5075 MIC FBS” value read?
Answer: > 128 µg/mL

Question: What about the “AB5075 MIC MH” value of the same compound?
Answer: 8 µg/mL

Question: With `CC(C)C[C@@H]1NC(=O)[C@H](CO)NC(=O)[C@H](C(C)C)NC(=O)[C@H](CCCCN)NC(=O)[C@H](CCCNC(=N)N)NC(=O)CNC(=O)[C@H](CCCNC(=N)N)NC(=O)[C@H](CCCNC(=N)N)NC(=O)[C@H](CC(N)=O)NC(=O)[C@H](CC(C)C)NC(=O)[C@H](CCCNC(=N)N)NC(=O)[C@H](C(C)C)NC(=O)[C@H](CCCNC(=N)N)NC(=O)[C@H](CC(C)C)NC(=O)[C@@H](N)CSSC[C@@H](C(=O)O)NC(=O)[C@H](C(C)C)NC(=O)[C@H](CCC(N)=O)NC1=O` [SySA-5.10] (H-CLRVRLNRRGRKVSLQVC-OH; disulfide 1-18) as the compound, how does the “AB5075 MIC FBS” value read?
Answer: 128 µg/mL

Question: And the “AB5075 MIC MH” value?
Answer: 4 µg/mL

Question: What does the source list for `CC(C)C[C@@H]1NC(=O)[C@H](CCCNC(=N)N)NC(=O)[C@H](C(C)C)NC(=O)[C@H](CCCCN)NC(=O)[C@H](CCCNC(=N)N)NC(=O)CNC(=O)[C@H](CCCNC(=N)N)NC(=O)[C@H](CCCNC(=N)N)NC(=O)[C@H](CCCNC(=N)N)NC(=O)[C@H](CC(C)C)NC(=O)[C@H](CCCNC(=N)N)NC(=O)[C@H](C(C)C)NC(=O)[C@H](CCCNC(=N)N)NC(=O)[C@H](CC(C)C)NC(=O)[C@@H](N)CSSC[C@@H](C(=O)O)NC(=O)[C@H](C(C)C)NC(=O)[C@H](CCC(N)=O)NC1=O` [SySA-5.11] (H-CLRVRLRRRGRKVRLQVC-OH; disulfide 1-18)?
Answer: AB5075 MIC FBS: 64 µg/mL; AB5075 MIC MH: 4 µg/mL

Question: What does the source list for `CC(C)C[C@@H]1NC(=O)[C@H](CCCNC(=N)N)NC(=O)[C@H](C(C)C)NC(=O)[C@H](CCCNC(=N)N)NC(=O)[C@H](CC(C)C)NC(=O)[C@@H](N)CSSC[C@@H](C(=O)O)NC(=O)[C@H](C(C)C)NC(=O)[C@H](CCCNC(=N)N)NC(=O)[C@H](CC(C)C)NC(=O)[C@H](CO)NC(=O)[C@H](C(C)C)NC(=O)[C@H](CCCCN)NC(=O)[C@H](C(C)C)NC(=O)[C@H](CCCNC(=N)N)NC(=O)CNC(=O)[C@H](CCCNC(=N)N)NC(=O)[C@H](CCCNC(=N)N)NC(=O)[C@H](CC(N)=O)NC(=O)[C@H](CCCNC(=N)N)NC1=O` [SySA-5.1] (H-CLRVRLRNRRGRVKVSLRVC-OH; disulfide 1-20)?
Answer: AB5075 MIC FBS: 128 µg/mL; AB5075 MIC MH: 8 µg/mL

Question: How did the “AB5075 MIC FBS” value turn out when `CC(C)C[C@@H]1NC(=O)[C@H](CO)NC(=O)[C@H](C(C)C)NC(=O)[C@H](CCCCN)NC(=O)[C@H](C(C)C)NC(=O)[C@H](CCCNC(=N)N)NC(=O)CNC(=O)[C@H](CCCNC(=N)N)NC(=O)[C@H](CCCNC(=N)N)NC(=O)[C@H](CC(N)=O)NC(=O)[C@H](CCCNC(=N)N)NC(=O)[C@H](CC(C)C)NC(=O)[C@H](CCCNC(=N)N)NC(=O)[C@H](C(C)C)NC(=O)[C@H](CCCNC(=N)N)NC(=O)[C@@H](N)CSSC[C@@H](C(=O)O)NC(=O)[C@H](CCCNC(=N)N)NC1=O` [SySA-5.6] (H-CRVRLRNRRGRVKVSLRC-OH; disulfide 1-18) was run?
Answer: 128 µg/mL

Question: What about the “AB5075 MIC MH” value of the same compound?
Answer: 4 µg/mL

Same assay, conditions: Mueller-Hinton; median of triplicate

Question: With Protegrin-1 [reference compound] as the compound, how does the “AB5075 MIC MH” value read?
Answer: 1 µg/mL
